This note sets out measurements from patent US20230167073A1 (Teijin Pharma Limited, priority 2020, published 2023).

Some results are limits rather than exact numbers.

The test deals with T1, Human TRPC6 (Homo sapiens, UniProt Q9Y210).
T1 construct: expressed in transfected cells
T1 sequence (Q9Y210 1-931): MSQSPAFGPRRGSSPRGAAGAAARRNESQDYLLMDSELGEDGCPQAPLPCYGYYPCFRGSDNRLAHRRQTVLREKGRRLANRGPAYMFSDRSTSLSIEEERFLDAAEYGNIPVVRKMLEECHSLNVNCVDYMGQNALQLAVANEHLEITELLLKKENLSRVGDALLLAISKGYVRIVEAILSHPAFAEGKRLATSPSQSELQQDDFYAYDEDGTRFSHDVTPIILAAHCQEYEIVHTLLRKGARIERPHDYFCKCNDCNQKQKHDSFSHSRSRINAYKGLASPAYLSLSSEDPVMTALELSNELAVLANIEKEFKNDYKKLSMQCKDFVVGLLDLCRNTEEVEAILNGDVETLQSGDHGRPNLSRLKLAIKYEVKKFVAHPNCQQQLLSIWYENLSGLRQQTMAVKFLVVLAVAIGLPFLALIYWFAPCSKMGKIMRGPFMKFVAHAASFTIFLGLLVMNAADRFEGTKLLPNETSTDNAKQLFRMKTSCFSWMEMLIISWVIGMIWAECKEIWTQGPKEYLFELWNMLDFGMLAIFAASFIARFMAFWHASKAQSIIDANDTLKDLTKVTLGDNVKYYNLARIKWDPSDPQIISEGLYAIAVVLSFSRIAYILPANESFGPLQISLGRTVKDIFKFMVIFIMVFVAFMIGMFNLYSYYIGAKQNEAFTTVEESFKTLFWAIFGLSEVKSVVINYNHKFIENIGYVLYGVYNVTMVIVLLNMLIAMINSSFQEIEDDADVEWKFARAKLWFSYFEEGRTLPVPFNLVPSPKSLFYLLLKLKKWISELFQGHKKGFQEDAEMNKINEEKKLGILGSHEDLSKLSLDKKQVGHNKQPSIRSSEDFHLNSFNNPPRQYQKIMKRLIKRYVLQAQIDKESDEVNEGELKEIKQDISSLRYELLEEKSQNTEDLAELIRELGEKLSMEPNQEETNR
Put plainly: Evaluation of TRPC6 channel inhibitory activity (1), FLIPR Calcium 5 Assay Kit, OAG stimulation (Compound Nos. 1-1293). It is filed as cell-based. The conditions noted are these: Human TRPC6 stably-expressing cells, OAG 30 μM, FLIPR Calcium 5 Assay Kit; read-out: Inhibitory activity (pIC50 class) (converted). The method in brief: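 Stable human TRPC6 line; fluorescent Ca2+ dye loading, then 20 min compound exposure before 30 μM OAG trigger. Peak-minus-baseline signal converted to % inhibition against untreated and unstimulated wells; potency given as pIC50 band.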
On to `Cn1nc(-c2cccnn2)cc1Oc1cc(C#N)ccc1-c1ncc(CN)cn1` [compound 934, 4-[5-(aminomethyl)pyrimidin-2-yl]-3-(2-methyl-5-pyridazin-3-ylpyrazol-3-yl)oxybenzonitrile], for which the IC50 was 10 to 1000 nM.
The same measure for `Cn1nc(C2CC2)cc1Oc1cc(F)ccc1-c1ccc(CCN)cn1` [compound 1018, 2-[6-[2-(5-cyclopropyl-2-methylpyrazol-3-yl)oxy-4-fluorophenyl]pyridin-3-yl]ethanamine]: less than 10 nM; for `Cn1nc(N2CCCCC2)cc1Oc1cc(C#N)ccc1-c1ncc(CN)cn1` [compound 624, 4-[5-(aminomethyl)pyrimidin-2-yl]-3-(2-methyl-5-piperidin-1-ylpyrazol-3-yl)oxybenzonitrile]: less than 10 nM; for `Cn1nc(C2CCC2)cc1Oc1cc(C#N)ccc1-c1ccc(CCN)cn1` [Compound 237, 4-[5-(2-aminoethyl)pyridin-2-yl]-3-(5-cyclobutyl-2-methylpyrazol-3-yl)oxybenzonitrile]: less than 10 nM.
The same measure for `CC(C)c1cc(Oc2cc(C#N)ccc2-c2ncc(CCN)cn2)n(C)n1` [Compound 261, 4-[5-(2-Aminoethyl)pyrimidin-2-yl]-3-(2-methyl-5-propan-2-ylpyrazol-3-yl)oxybenzonitrile]: less than 10 nM; for `Cc1nc(Oc2cc(C#N)ccc2-c2ncc(CCN)cn2)cc(N2CCC[C@@H]2C)n1` [compound 860, 4-[5-(2-aminoethyl)pyrimidin-2-yl]-3-[2-methyl-6-[(2S)-2-methylpyrrolidin-1-yl]pyrimidin-4-yl]oxybenzonitrile]: less than 10 nM.
The value for `CCN(CC(F)F)c1cc(Oc2cc(F)ccc2-c2ncc(CN)cn2)n(C)n1` [compound 994, 5-[2-[5-(aminomethyl)pyrimidin-2-yl]-5-fluorophenoxy]-N-(2,2-difluoroethyl)-N-ethyl-1 methylpyrazole-3-amine] was 10 to 1000 nM.
On to `CC(C)Cc1cn(Cc2cc(C#N)ccc2-c2ncc(CN)cn2)nn1` [compound 1188, 4-[5-(aminomethyl)pyrimidin-2-yl]-3-[[4-(2-methylpropyl)triazol-1-yl]methyl]benzonitrile], for which the IC50 was 10 to 1000 nM.
The same measure for `Cn1nc(-c2ccccn2)cc1Oc1cc(C#N)ccc1-c1cc(CN)cn2ccnc12` [compound 737, 4-[6-(aminomethyl)imidazo[1,2-a]pyridin-8-yl]-3-(2-methyl-5-pyridin-2-ylpyrazol-3-yl)oxybenzonitrile]: less than 10 nM; for `N#Cc1ccc(-c2ncc(CN)cn2)c(Oc2cnnc(N3CCCC3)c2)c1` [compound 714, 4-[5-(aminomethyl)pyrimidin-2-yl]-3-(6-pyrrolidin-1-ylpyridazin-4-yl)oxybenzonitrile]: less than 10 nM.
In the case of `Cc1cc(Oc2nc(C#N)ccc2-c2ccc(CCN)cn2)cc(N2CCOCC2)n1` [compound 1284, 5-[5-(2-aminoethyl)pyridin-2-yl]-6-(2-methyl-6-morpholin-4-ylpyridin-4-yl)oxypyridine-2-carbonitrile], the IC50 is 10 to 1000 nM.
The value for `Cn1nc(N2CCCC2)cc1Oc1cc(C#N)ccc1-c1ccc(CC2(N)COC2)cn1` [compound 741, 4-[5-[(3-aminooxetan-3-yl)methyl]pyridin-2-yl]-3-(2-methyl-5-pyrrolidin-1-ylpyrazol-3-yl)oxybenzonitrile] was 10 to 1000 nM; that for `Cc1nn(CC(F)(F)F)cc1Oc1cc(C#N)ccc1-c1ncc(CCN)cn1` [compound 834, 4-[5-(2-aminoethyl)pyrimidin-2-yl]-3-[3-methyl-1-(2,2,2-trifluoroethyl)pyrazol-4-yl]oxybenzonitrile] was less than 10 nM.
On to `N#Cc1ccc(-c2ccc(CCN)nc2)c(Oc2cnnc(-c3ccccc3)c2)c1` [Compound 102, 4-[6-(2-aminoethyl)pyridin-3-yl]-3-(6-phenylpyridazin-4-yl)oxybenzonitrile], for which the IC50 was 10 to 1000 nM.
The value for `CC(C)c1cc(Oc2cc(C#N)ccc2-c2ccc(CN)n3ccnc23)n(C)n1` [compound 711, 4-[5-(aminomethyl)imidazo[1,2-a]pyridin-8-yl]-3-(2-methyl-5-propan-2-ylpyrazol-3-yl)oxybenzonitrile] was less than 10 nM.
The same measure for `Cc1nc(CN2CCC(C(F)(F)F)CC2)cn1Cc1cc(C#N)ccc1-c1ncc(CCN)cn1` [compound 1180, 4-[5-(2-aminoethyl)pyrimidin-2-yl]-3-[[2-methyl-4-[[4-(trifluoromethyl)piperidin-1-yl]methyl]imidazol-1-yl]methyl]benzonitrile]: greater than 1000 nM; for `Cc1nc(Oc2cc(C#N)ccc2-c2ncc(CN)cn2)cc(-c2ccc(F)cn2)n1` [compound 474, 4-[5-(aminomethyl)pyrimidin-2-yl]-3-[6-(5-fluoropyridin-2-yl)-2-methylpyrimidin-4-yl]oxybenzonitrile]: greater than 1000 nM; for `N#Cc1ccc(-c2ncc(CN)cn2)c(C(=O)c2cnn(C3CCC3)c2)c1` [compound 1058, 4-[5-(aminomethyl)pyrimidin-2-yl]-3-(1-cyclobutylpyrazole-4-carbonyl)benzonitrile]: less than 10 nM.
The same measure for `N#Cc1ccc(-c2ccc(CCN)cc2)c(Oc2cnnc(-c3ccccc3C(=O)O)c2)c1` [Compound 121, 2-[5-[2-[4-(2-aminoethyl)phenyl]-5-cyanophenoxy]pyridazin-3-yl]benzoic acid]: greater than 1000 nM; for `N#Cc1ccc(-c2ncc(CCN)cn2)c(C(=O)c2nnc(N3CCOCC3)s2)c1` [compound 1096, 4-[5-(2-aminoethyl)pyrimidin-2-yl]-3-(5-morpholin-4-yl-1,3,4-thiadiazole-2-carbonyl)benzonitrile]: 10 to 1000 nM; for `Cn1nc(C2CC2)cc1Oc1cc(C#N)ccc1-c1ccc(C(=O)N2CCNCC2)cn1` [compound 780, 3-(5-cyclopropyl-2-methylpyrazol-3-yl)oxy-4-[5-(piperazine-1-carbonyl)pyridin-2-yl]benzonitrile]: greater than 1000 nM.
In the case of `COCCN(C)c1cc(Oc2cc(C#N)ccc2-c2ccc(CCN)cn2)cc(C)n1` [compound 459, 4-[5-(2-aminoethyl)pyridin-2-yl]-3-[2-[2-methoxyethyl(methyl)amino]-6-methylpyridin-4-yl]oxybenzonitrile], the IC50 is less than 10 nM.
Turning to `Cn1nc(C2CC2)cc1Oc1cc(C#N)ccc1-c1cc(CCN)ccn1` [compound 482, 4-[4-(2-aminoethyl)pyridin-2-yl]-3-(5-cyclopropyl-2-methylpyrazol-3-yl)oxybenzonitrile], the IC50 is less than 10 nM.
The value for `Cn1nc(N2CCCCC2)cc1Cc1cc(C#N)ccc1-c1ncc(CCN)cn1` [compound 1218, 4-[5-(2-aminoethyl)pyrimidin-2-yl]-3-[(2-methyl-5-piperidin-1-ylpyrazol-3-yl)methyl]benzonitrile] was less than 10 nM.
The value for `Cc1nc(Oc2cc(C#N)ccc2-c2ncc([C@H](O)CN)cn2)cc(N2CCCCC2)n1` [compound 510, 4-[5-[(1S)-2-amino-1-hydroxyethyl]pyrimidin-2-yl]-3-(2-methyl-6-piperidin-1-ylpyrimidin-4-yl)oxybenzonitrile] was less than 10 nM.
The value for `COCc1nn(C)c(Oc2cc(C#N)ccc2-c2ccc(CCN)cc2)c1C` [Compound 242, 4-[4-(2-aminoethyl)phenyl]-3-[5-(methoxymethyl)-2,4-dimethylpyrazol-3-yl]oxybenzonitrile] was greater than 1000 nM.
